Patent EP1272854B1, “METHOD FOR DETECTING A HORMONE DISRUPTING ACTIVITY OF ENVIRONMENTAL POLLUTANTS” (Meulenberg, Petronella Mariette Maria, priority 2000, dated 2001)

Tests used:
[1] = system: SHBG (Sex Hormone Binding Globulin) from serum of pregnant volunteers; test: SHBG assay: competitive displacement of tritiated oestradiol from antibody-captured SHBG on microtiter plate; parameters: species or system human; settings: for displacement of oestradiol / affinity to SHBG (in words): discussion of the SHBG assay results; for Activity (score for the displacement of tritiated oestradiol): displacement of 3H-oestradiol from SHBG, related to testosterone standard curve
Source text: Sub figure 1a: HPAA = Hypothalamus-Pituitary-Adrenal-Axis; CRH = Corticotrophin Releasing Hormone; ACTH = Adrenocorticotrophic Hormone; Adrenal = adrenal gland. Sub figure 1b: HPTeA = Hypothalamus-Pituitary-Testis-Axis; LHRH = Luteinizing Hormone Releasing Hormone; LH = Luteinizing Hormone. […] The values are the averages of 11 measurements. […] Plotted out is the bound fraction as a percentage of the total quantity of added ^3H-E2 against the concentration of the test compound.
The SHBG assay was developed for detecting a possible oestrogenic activity of xenobiotic substances. As main component use was made of SHBG from serum of pregnant volunteers in the third trimester of pregnancy. Additionally use was made of commercially available polyclonal anti-SHBG antibody (DAKO) to isolate SHBG from serum on a microtiter plate. […] As standard testosterone (Sigma-Aldrich B.V., Zwijndrecht, the Netherlands) was used in a concentration series.
All compounds to be analyzed are related to the testosterone standard curve. For the analysis of an oestrogenic effect various compounds were tested in the SHBG assay, including endogenous steroids, pharmaceutical substances, pesticides and industrial waste products (alkyl phenols). […]

SHBG (post partum serum) = settings: competition with 3H-5-alpha-DHT; cited from earlier work
SHBG = settings: cited from earlier work

Compound | displacement of oestradiol / affinity to SHBG (in words) [1] | Activity (score for the displacement of tritiated oestradiol) [1] | binding to SHBG (SHBG (post partum serum)) | also measured
C#CC1(O)CC[C@H]2[C@@H]3CCC4=CC(=O)CC[C@@H]4[C@H]3CC[C@@]21CC (mixture of isomers) [Norgestrel, reference compound] | high affinity | + + (strong displacement) | – | –
O=C(O)COc1ccc(Cl)cc1Cl [2.4-D] | – | + (moderate displacement) | – | –
C[C@H]1C[C@@H]2[C@H]([C@@H](O)C[C@@]3(C)[C@H]2CC[C@]3(O)C(=O)CO)[C@@]2(C)C=CC(=O)C=C12 [6-alpha-methylprednisolone, reference compound] | – | + (moderate displacement) | – | –
CNC(=O)O/N=C/C(C)(C)SC [Aldicarb] | ambiguous result | +/- | – | –
C[C@]12CC[C@@H](O)C[C@@H]1CC[C@@H]1[C@@H]2CC[C@]2(C)C(=O)CC[C@@H]12 [Andosterone, reference compound] | – | + (moderate displacement) | – | –
CCNc1nc(Cl)nc(NC(C)C)n1 [Atrazine] | no activity at all | - (no displacement) | not found | –
CC(C)(c1ccc(O)cc1)c1ccc(O)cc1 [Bisphenol-A] | remarkably strong effect | + + (strong displacement) | – | –
CC/C(=C(/CC)c1ccc(O)cc1)c1ccc(O)cc1 [DES, reference compound] | high affinity | + + (strong displacement) | – | –
C[C@]12CC[C@H](O)CC1=CC[C@@H]1[C@@H]2CC[C@]2(C)C(=O)CC[C@@H]12 [Dehydro-iso-andosterone, reference compound] | – | + (moderate displacement) | – | –
CN(C)S(=O)(=O)N(SC(F)(Cl)Cl)c1ccccc1 [Dichlofluanide] | – | + (moderate displacement) | – | –
O=C(O)CNCP(=O)(O)O [Glyphosate] | ambiguous result | +/- | – | –
CCCCC(O)(Cn1cncn1)c1ccc(Cl)cc1Cl (centres unmarked) [Hexaconazole] | ambiguous result | +/- | – | –
CCOC(=O)CC(SP(=S)(OC)OC)C(=O)OCC (centres unmarked) [Malathion] | – | + (moderate displacement) | – | –
C[C@]12CC[C@@H]3c4ccc(O)cc4CC[C@H]3[C@@H]1CC[C@@H]2O [Oestradiol] | – | – | – | affinity for SHBG (SHBG; association constant, see Dunn et al. 1981): 7e-10 M⁻¹
CC1(C)C(C=C(Cl)Cl)C1C(=O)OCc1cccc(Oc2ccccc2)c1 (centres unmarked) [Permethrin] | clear displacement | + + (strong displacement) | – | –
CCNc1nc(Cl)nc(NCC)n1 [Simazine] | ambiguous result | + /- | – | –
CC(C)(C)C(O)(CCc1ccc(Cl)cc1)Cn1cncn1 (centres unmarked) [Tebuconazole] | ambiguous result | +/- | – | –
C[C@]12CC[C@H]3[C@@H](CCC4=CC(=O)CC[C@@]43C)[C@@H]1CC[C@@H]2O [Testosterone] | – | + + (strong displacement) | – | Kd (SHBG; see Dunn et al. 1981, read-out: affinity for SHBG (converted)): 62.5 nM; affinity to SHBG relative to oestradiol (SHBG; testosterone versus oestradiol): approximately 3 times
C=CC1(C)OC(=O)N(c2cc(Cl)cc(Cl)c2)C1=O (centres unmarked) [Vinclozolin] | – | + (moderate displacement) | – | –
ClC1=C(Cl)[C@]2(Cl)[C@@H]3[C@@H]4C[C@@H]([C@H]5O[C@@H]45)[C@@H]3[C@@]1(Cl)C2(Cl)Cl [dieldrin] | – | – | not found | –
COc1ccc(C(c2ccc(OC)cc2)C(Cl)(Cl)Cl)cc1 [methoxychlor] | – | – | not found | –
Clc1ccc(C(c2ccccc2Cl)C(Cl)(Cl)Cl)cc1 (centres unmarked) [o,p'-DDT] | – | – | showed binding | –
ClC(Cl)=C(c1ccc(Cl)cc1)c1ccc(Cl)cc1 [p,p'-DDE] | – | – | not found | –
Clc1ccc(C(c2ccc(Cl)cc2)C(Cl)(Cl)Cl)cc1 [p,p'-DDT] | – | – | not found | –
Oc1c(Cl)c(Cl)c(Cl)c(Cl)c1Cl [pentachlorophenol] | – | – | showed binding | –
Nonylphenol | remarkably strong effect | + + (strong displacement) | showed binding | –
